Assay results reported in patent US12509431B2, “1,4-dihydroquinazolinone compounds and uses thereof” (Edgewise Therapeutics, Inc., priority 2022, dated 2025).
Like-named read-outs stand apart in the source and are kept apart here.

How the values were obtained:
[1] = molecular target: T1, Porcine Ventricle myofibrils (left ventricle of Yucatan minipigs) (Sus scrofa, UniProt P79293); experiment: Myofibril ATPase assay (PK/LDH NADH-coupled), ventricle myofibrils; assay type: biochemical
T1 construct: Myofibrils from porcine cardiac muscle was isolated from the left ventricle of Yucatan minipigs; tissue Exemplar Genetics; host or cells: left ventricle of Yucatan minipigs
T1 sequence (P79293 whole entry): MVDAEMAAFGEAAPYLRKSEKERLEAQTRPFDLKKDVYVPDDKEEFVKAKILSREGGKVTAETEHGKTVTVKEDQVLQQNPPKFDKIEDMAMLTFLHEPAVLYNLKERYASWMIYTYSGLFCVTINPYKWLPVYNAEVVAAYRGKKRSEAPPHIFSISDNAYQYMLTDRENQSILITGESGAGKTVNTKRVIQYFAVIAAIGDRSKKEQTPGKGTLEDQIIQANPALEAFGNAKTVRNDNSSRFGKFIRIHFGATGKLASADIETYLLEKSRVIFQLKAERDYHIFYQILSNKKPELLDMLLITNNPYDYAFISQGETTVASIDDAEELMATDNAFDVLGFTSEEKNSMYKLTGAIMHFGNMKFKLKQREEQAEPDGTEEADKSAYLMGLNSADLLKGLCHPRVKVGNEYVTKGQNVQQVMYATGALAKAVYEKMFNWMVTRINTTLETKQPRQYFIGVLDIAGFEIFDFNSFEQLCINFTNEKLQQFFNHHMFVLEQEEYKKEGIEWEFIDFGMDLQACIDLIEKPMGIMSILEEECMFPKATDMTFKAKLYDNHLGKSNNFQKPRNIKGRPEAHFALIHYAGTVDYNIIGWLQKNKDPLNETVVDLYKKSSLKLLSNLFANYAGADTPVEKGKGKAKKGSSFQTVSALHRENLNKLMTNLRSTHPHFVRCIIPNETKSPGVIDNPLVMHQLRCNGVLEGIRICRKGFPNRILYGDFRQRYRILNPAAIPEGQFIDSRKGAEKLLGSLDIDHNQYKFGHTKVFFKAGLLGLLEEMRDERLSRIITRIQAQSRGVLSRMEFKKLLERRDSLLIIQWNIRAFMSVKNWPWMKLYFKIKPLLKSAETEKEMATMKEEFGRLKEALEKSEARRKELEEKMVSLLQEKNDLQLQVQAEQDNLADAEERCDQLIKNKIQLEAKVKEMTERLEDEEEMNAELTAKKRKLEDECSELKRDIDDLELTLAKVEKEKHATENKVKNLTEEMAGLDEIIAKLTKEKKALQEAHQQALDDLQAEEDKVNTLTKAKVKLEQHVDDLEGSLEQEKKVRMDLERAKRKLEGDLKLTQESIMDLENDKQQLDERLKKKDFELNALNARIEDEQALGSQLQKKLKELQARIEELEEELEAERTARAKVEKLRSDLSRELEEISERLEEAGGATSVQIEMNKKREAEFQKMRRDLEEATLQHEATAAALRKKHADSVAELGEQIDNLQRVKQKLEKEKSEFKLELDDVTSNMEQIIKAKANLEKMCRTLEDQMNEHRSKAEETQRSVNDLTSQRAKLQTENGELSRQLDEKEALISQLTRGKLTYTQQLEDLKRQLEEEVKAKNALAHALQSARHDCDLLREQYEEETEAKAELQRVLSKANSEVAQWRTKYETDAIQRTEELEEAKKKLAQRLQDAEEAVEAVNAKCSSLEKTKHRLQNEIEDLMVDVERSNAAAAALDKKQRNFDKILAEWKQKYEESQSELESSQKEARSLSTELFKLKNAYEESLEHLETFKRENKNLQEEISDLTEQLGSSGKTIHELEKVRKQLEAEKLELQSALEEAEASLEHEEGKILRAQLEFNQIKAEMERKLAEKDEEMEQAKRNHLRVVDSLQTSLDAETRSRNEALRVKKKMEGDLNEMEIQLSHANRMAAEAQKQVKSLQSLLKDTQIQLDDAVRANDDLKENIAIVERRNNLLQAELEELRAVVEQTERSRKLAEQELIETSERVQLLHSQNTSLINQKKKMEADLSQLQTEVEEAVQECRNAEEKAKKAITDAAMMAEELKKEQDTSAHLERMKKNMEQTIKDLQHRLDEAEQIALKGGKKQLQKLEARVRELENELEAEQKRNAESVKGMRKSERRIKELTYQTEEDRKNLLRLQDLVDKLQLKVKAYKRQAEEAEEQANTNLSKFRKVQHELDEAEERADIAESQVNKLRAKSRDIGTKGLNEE
In short: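 Yucatan minipig left-ventricle myofibrils; ATPase measured by PK/LDH-coupled NADH loss at 340 nm, read every 1.5-2 min for 75 min. Slopes normalized to vehicle (100%) and fit to 4-parameter logistic model; EC25 and, for inhibitors, EC50 calculated.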

[2] = system: Porcine Atria myofibrils; experiment: Myofibril ATPase assay (PK/LDH NADH-coupled), atria myofibrils; assay type: biochemical
In short: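 Porcine atrial myofibril ATPase followed via PK/LDH-coupled NADH depletion, absorbance at 340 nm read every 1.5-2 min over 75 min. Slopes (mAU/min) normalized to vehicle as 100% and fit to a 4-parameter logistic; EC25% derived, plus EC50% for inhibitors.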

[3] = system: isoflurane-anesthetized SD rats; experiment: In vivo echocardiography of systolic cardiac performance (FS, SWT, HR, LV volumes) after a single oral dose; settings: Rattus norvegicus, single dose 10 mg/kg PO, ~2 hrs post-dosing, vs. vehicle
Experimental: Experiments were performed to evaluate the in vivo ability of the compounds of the disclosure to modulate systolic cardiac performance. Non-invasively echocardiography was used to assess cardiac indicators in isoflurane-anesthetized SD rats. A set of conscious rats were treated with either vehicle control (0 mg/kg PO; n=78) or a single dose of an test compound (10 mg/kg PO, n=2 to 6/compound) via oral gavage. Cardiac function/geometry were recorded at two separate time-points/days: once prior to dosing (i.e., at baseline, day −2) and at ˜2 hrs post-dosing (day 0).
In these experiments, heart rate (HR), echocardiography-derived indices of left-ventricular systolic performance, as well as dimensions/volumes were measured using a high-frequency transducer and parastemnal long-axis transthoracic views (Vevo3100, VisualSonic). LV fractional shortening (FS), an index of systolic function, was defined as the end-diastole normalized change in internal dimensions divided by the […] (LVid) of the left ventricle between end-systole (LVids) and end-diastole (LVidd) (i.e., FS=100·[LVidd−LVids]/LVidd). LV volumes were derived using the Teichholz formula (LVV=7·LVid^3/[2.4+LVid]). In addition, a systolic wall-thickening index (SWT) was also evaluated. SWT is defined as the relative ratio (end-diastole normalized) of left-ventricular (anterior and posterior) wall-thickness change during systole; i.e., SWT=I{[(anterior LV wall thickness in systole−anterior LV wall thickness in diastole)][…][(posterior LV wall thickness in systole−posterior LV wall thickness in diastole)]}/{2*diastolic thickness}. In all cases, blood samples were taken (via either tail-vein micro-sampling or cardiac-puncture) at the time of each echocardiographic examination in order to establish pharmacokinetic (PK)/pharmacodynamics (PD) relationships.

[4] = system: Rabbit Skeletal myofibrils (rabbit psoas muscle); experiment: Myofibril ATPase assay (PK/LDH NADH-coupled), skeletal myofibrils; assay type: biochemical
In short: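 Rabbit psoas myofibrils in pCa (PIPES/CaCl2/EGTA, pH 7.0) buffer; ADP coupled via PK/LDH to NADH loss, read at 340 nm every 1.5–2 min for 75 min. Slopes normalized to vehicle (100%) and fit to 4-parameter logistic for EC25, plus EC50 for inhibitors.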

[5] = EDV (LV volume, Teichholz formula), read-out: EDV % vs. VEH
[6] = LV fractional shortening, read-out: FS % vs. VEH
[7] = heart rate, read-out: HR % vs. VEH
[8] = systolic wall-thickening index, read-out: SWT % vs. VEH

Structure (SMILES)	Porcine Ventricle IC25 ([1]; Table 7)	Porcine Atria IC25 ([2]; Table 7)	Rabbit Psoas IC25 ([4]; Table 7)	also measured
Cc1nc(C#N)cnc1C(C)NC(=O)CN1Cc2c(ccc(F)c2F)NC1=O (single isomer, unassigned) [Compound B55]				Porcine Ventricle IC25 ([1]; Table 8): 53.3 nM; Porcine Atria IC25 ([2]; Table 8): 50 nM; change in vivo at 10 mg/kg [3, 5]: 70%; change in vivo at 10 mg/kg [3, 6]: -36%; change in vivo at 10 mg/kg [3, 7]: -5%; change in vivo at 10 mg/kg [3, 8]: 10%; Rabbit Psoas IC25 ([4]; Table 8): 11.4 nM
C[C@H](NC(=O)CN1Cc2c(ccc(F)c2F)NC1=O)c1ncc(C#N)cc1F [Compound B142]				Porcine Ventricle IC25 ([1]; Table 8): 54.34 nM; Porcine Atria IC25 ([2]; Table 8): 40 nM; change in vivo at 10 mg/kg [3, 5]: 21%; change in vivo at 10 mg/kg [3, 6]: -81%; change in vivo at 10 mg/kg [3, 7]: 6%; change in vivo at 10 mg/kg [3, 8]: -78%; Rabbit Psoas IC25 ([4]; Table 8): 21.68 nM
N#Cc1c(F)ccc2c1CN(CC(=O)N[C@@H](CO)c1ccc(F)cc1F)C(=O)N2 [Compound B152]				Porcine Ventricle IC25 ([1]; Table 8): 294.6 nM; Porcine Atria IC25 ([2]; Table 8): 170 nM; change in vivo at 10 mg/kg [3, 5]: -6%; change in vivo at 10 mg/kg [3, 6]: 6%; change in vivo at 10 mg/kg [3, 7]: 1%; change in vivo at 10 mg/kg [3, 8]: -2%; Rabbit Psoas IC25 ([4]; Table 8): 39.53 nM
C[C@@H](NC(=O)CN1C(=O)Nc2ccc(F)c(F)c2C1O)c1ncc(C#N)cc1F (stereo partly shown) [Compound B327]				change in vivo at 10 mg/kg [3, 5]: -2%; change in vivo at 10 mg/kg [3, 6]: -1%; change in vivo at 10 mg/kg [3, 7]: 5%; change in vivo at 10 mg/kg [3, 8]: 10%
CC(C(=O)N[C@@H](C)c1ccc(F)cc1F)N1Cc2nc(F)ccc2NC1=O (stereo partly shown) [Compound N110]	19540 nM	190 nM	167.4 nM	
C[C@H](NC(=O)[C@@H](C)N1Cc2nc(F)ccc2NC1=O)c1ccc(F)cc1F [Compound N111]	6670 nM	80 nM	102.7 nM	
C[C@H](NC(=O)CN1Cc2nc(C(F)(F)F)ccc2NC1=O)c1ccc(F)cc1F [Compound N112, N-[(1S)-1-(2,4-Difluorophenyl)ethyl]-2-[2-oxo-6-(trifluoromethyl)-1H,4H-pyrido[3,2-d]pyrimidin-3-yl]acetamide]	9823 nM	230 nM	296.8 nM	
C[C@H](NC(=O)CN1Cc2nc(OC3CC3)ccc2NC1=O)c1ccc(F)cc1F [Compound N113]	73850 nM	22120 nM	328.1 nM	
C[C@H](NC(=O)[C@H](C)N1Cc2c(ccnc2Cl)NC1=O)c1ccc(F)cc1F [Compound N114]	8373 nM	2300 nM	289.2 nM	
C[C@H](NC(=O)[C@@H](C)N1Cc2c(ccnc2Cl)NC1=O)c1ccc(F)cc1F [Compound N115]	751.6 nM	510 nM	22.8 nM	
C[C@H](NC(=O)CN1Cc2c(ccnc2OC2CC2)NC1=O)c1ccc(F)cc1F [Compound N116]	40220 nM	4380 nM	191.4 nM	
C[C@H](NC(=O)CN1Cc2nc(Cl)ccc2NC1=O)c1ccc(F)cc1F [Compound N117, 2-{6-Chloro-2-oxo-1H,4H-pyrido[3,2-d]pyrimidin-3-yl}-N-[(1S)-1-(2,4-difluorophenyl)ethyl]acetamide]	379.5 nM	170 nM	14.6 nM	
CCOc1ccc2c(n1)CN(CC(=O)N[C@@H](C)c1ccc(F)cc1F)C(=O)N2 [Compound N118]	5896 nM	750 nM	152 nM	
COc1ccc2c(n1)CN(CC(=O)N[C@@H](C)c1ccc(F)cc1F)C(=O)N2 [Compound N119]	3289 nM	570 nM	119.6 nM	
CC(C)Oc1nccc2c1CN(CC(=O)N[C@@H](C)c1ccc(F)cc1F)C(=O)N2 [Compound N120]	27230 nM	100000 nM	423.9 nM	
CCOc1nccc2c1CN(CC(=O)N[C@@H](C)c1ccc(F)cc1F)C(=O)N2 [Compound N121]	5985 nM	510 nM	21.8 nM	
C[C@H](NC(=O)CN1Cc2c(ccnc2OCC(F)F)NC1=O)c1ccc(F)cc1F [Compound N122]	11420 nM	360 nM	56.7 nM	
C[C@H](NC(=O)CN1Cc2nc(F)ccc2NC1=O)c1ccc(F)cc1F [Compound N123]	859.2 nM	70 nM	35.14 nM	
C[C@H](NC(=O)CN1Cc2c(ccnc2F)NC1=O)c1ccc(F)cc1F [Compound N124]	245.2 nM	80 nM	50.3 nM	
COc1nccc2c1CN(CC(=O)N[C@@H](C)c1ccc(F)cc1F)C(=O)N2 [Compound N125, N-[(1S)-1-(2,4-Difluorophenyl)ethyl]-2-{5-methoxy-2-oxo-1H,4H-pyrido[4,3-d]pyrimidin-3-yl}acetamide]	2663 nM	680 nM	42.3 nM	
C[C@H](NC(=O)CN1Cc2c(ccnc2C(F)(F)F)NC1=O)c1ccc(F)cc1F [Compound N126]	4027 nM	600 nM	75.62 nM	
C[C@H](NC(=O)CN1Cc2c(ccnc2C2CC2)NC1=O)c1ccc(F)cc1F [Compound N127, 2-[5-Cyclopropyl-2-oxo-1H,4H-pyrido[4,3-d]pyrimidin-3-yl]-N-[(1S)-1-(2,4-difluorophenyl)ethyl]acetamide]	73050 nM	3120 nM	293.1 nM	
C[C@H](NC(=O)CN1Cc2c(ccnc2Cl)NC1=O)c1ccc(F)cc1F [Compound N128, 2-{5-Chloro-2-oxo-1H,4H-pyrido[4,3-d]pyrimidin-3-yl}-N-[(1S)-1-(2,4-difluorophenyl)ethyl]acetamide]	253.3 nM	80 nM	41.8 nM	
Cc1nccc2c1CN(CC(=O)N[C@@H](C)c1ccc(F)cc1F)C(=O)N2 [Compound N129, N-[(1S)-1-(2,4-Difluorophenyl)ethyl]-2-{5-methyl-2-oxo-1H,4H-pyrido[4,3-d]pyrimidin-3-yl}acetamide]	4847 nM	4200 nM	559 nM	
O=C(CN1Cc2cnccc2NC1=O)N[C@H]1CCCc2cc(F)cc(F)c21 [Compound N130]	100000 nM	1540 nM	688 nM	
C[C@H](NC(=O)CN1Cc2cnccc2NC1=O)c1ccc(Cl)cc1 [Compound N131]	100000 nM	36110 nM	8051 nM	
Cc1cc(F)ccc1[C@H](C)NC(=O)CN1Cc2cnccc2NC1=O [Compound N132]	97090 nM	3750 nM	1636 nM	
C[C@H](NC(=O)CN1Cc2cnccc2NC1=O)c1ccc(F)cc1F [Compound N133]	13900 nM	2800 nM	839.1 nM	
N#Cc1cnc2c(n1)CC[C@H]2NC(=O)CN1C(=O)Nc2ccc(C#N)nc2C12CC2 [Compound N135]	100000 nM	6420 nM	100000 nM	
N#Cc1cnc2c(n1)CC[C@@H]2NC(=O)CN1C(=O)Nc2ccc(C#N)nc2C12CC2 [Compound N136]	10900 nM	290 nM	100000 nM	
